Results reported in patent publication US7763426B2, “Probes and methods for detection of Escheridia coli and antibiotic resistance” (priority 2004, dated 2010).
{Fluorescein} = fluorescein label (binding site for anti-fluorescein Fab-HRP); {Biotin} = biotin (capture probe anchor)

Test system: bacterial 16S rRNA
Experiment: Species specificity of short probe pairs, 16 sensor array at ambient temperature (Example 5)
Assay type: binding
Conditions: for Species detected: ambient temperature hybridization; for Species not detected: * cross-reactivity at a level significantly less than with the target species

Substance	cross-reactivity with P. mirabilis 16S (ambient temperature)	Species detected	Species not detected (ambient temperature)
PA122C (15 mer)/PA107D (15 mer): Pseudomonas aeruginosa probe pair, SEQ ID NO: 50 and 51 (DNA 1 CCCACTTTCTCCCTC; DNA 2 AGGACGTATGCGGTA; DNA 1: 5' {Biotin}, sugars by position and backbone not given here; DNA 2: 3' {Fluorescein}, sugars by position and backbone not given here; listed as Pseudomonas aeruginosa)	Weak cross-reactivity	Pa	Ea, Ec, Ef, Kp, Pm*
EB1275C (23 mer)/EB1252C (23 mer): Enterobacteriaceae probe pair, SEQ ID NO: 54 and 55 (DNA 1 ACTTTATGAGGTCCGCTTGCTCT; DNA 2 CGCGAGGTCGCCTTCCTTTGTAT; DNA 1: DNA, 5' {Biotin}, backbone and methylation of C not given here; DNA 2: DNA, 3' {Fluorescein}, backbone and methylation of C not given here; listed as Enterobacter sp.)		Ec, Kp, Pm, Ea	Pa, Ef
PM197C (21 mer)/PM176D (21 mer): Proteus mirabilis probe pair, SEQ ID NO: 46 and 47 (DNA 1 CATCCGATAGTGCAAGGTCCG; DNA 2 AAGAGCCCCTGCTTTGGTCCG; DNA 1: 5' {Biotin}, sugars by position and backbone not given here; DNA 2: 3' {Fluorescein}, sugars by position and backbone not given here; listed as Proteus mirabilis)		Pm	Ea, Ec, Ef, Kp, Pa
KP436C (11 mer)/KP425D (11 mer): Klebsiella pneumoniae probe pair, SEQ ID NO: 48 and 49 (DNA 1 CTYAHCGCCTT; DNA 2 CCTCCCCGCTG; DNA 1: 5' {Biotin}, sugars by position, backbone and the base at N not given here; DNA 2: 3' {Fluorescein}, sugars by position and backbone not given here; listed as Klebsiella pneumoniae)		Kp	Ea, Ec, Ef, Pa, Pm
EF187C (20 mer)/EF167D (20 mer): Enterococcus spp. probe pair, SEQ ID NO: 52 and 53 (DNA 1 ACCGCGGGTCCATCCATCAG; DNA 2 CGACACCCGAAAGCGCCTTT; DNA 1: 5' {Biotin}, sugars by position and backbone not given here; DNA 2: 3' {Fluorescein}, sugars by position and backbone not given here; listed as Enterococcus sp.)		Ef	Ea, Ec, Kp, Pa, Pm
